Where “and” joins values, the source holds several entries; their conditions need not be identical. Equal entries are not always repeated. Where two headings read alike, the source gives them in different places.
Legend:
[1] = Pharmacokinetics (plasma and brain levels) in ICR (CD-1) mice; type: in vivo; conditions: i.v. 1 mg/kg, 1 mg/kg
Method: ICR (CD-1) male mice were fasted at least three horns and water was available ad libitum before the study. Animals were housed in a controlled environment, target conditions: temperature 18 to 29° C., relative humidity 30 to 70%. Temperature and relative humidity was monitored daily. An electronic time controlled lighting system was used to provide a 12 h light/12 h dark cycle. 3 mice for each indicated time point. ICR (CD-1) mice were administered CA77 at 1 mg/kg i.v. and 30 mg/kg p.o. or CA77.1 at 1 mg/kg i.v. (FIG. 2A) and 10 mg/kg p.o. (FIG. 2B). Three (3) mice were included in each dosage and time group. Mice were sacrificed and plasma and brains were obtained at 0.083, 0.25, 0.50, 1.0, 2.0, 4.0, 8.0, and 24.0 hours after administration and drug concentration determined using LC-MS/MS. Brains were removed, homogenized with a tissue homogenizer in cold 5% w/v BSA in phosphate buffer saline (PBS). A 100 microliter aliquots of brain samples were dispensed in to glass culture tubes and mixed with ethyl acetate (800 μl), vortexed, and centrifuged. The organic layer was transferred to a fresh culture tube, dried under nitrogen, and reconstituted in mobile phase for quantitation. Pharmacokinetic parameters were determined by standard methods using Phoenix WinNonlin 6.3 software.
Tables 3A and 3B provide the concentrations of CA77 in ICR (CD-1) mouse plasma (3A) and mouse brain (3B) following i.v. administration of 1 mg/kg CA77. Table 3C provides the brain/plasma ratio of CA77 following i.v. administration of 1 mg/kg CA77. Shaded cells indicate data not included in statistics due to aberrant value. BLQ=Below Limit of Quantitation.
Tables 5A and 5B provide the concentrations of CA77.1 in ICR (CD-1) mouse plasma (5A) and mouse brain (5B) following i.v. administration of 1 mg/kg CA77.1. Table 5C provides the brain/plasma ratio of CA77.1 following i.v. administration of 1 mg/kg CA77.1. The plasma and brain pharmacokinetic parameters for CA77.1 are provided in Table 6. *—cells contain data not present in the statistics.

in vitro = conditions: human, microsomes
Method: Microsome stability was determined in human, rat, and mouse, liver microsomes. Compound at 3 μM final concentration along with 0.5 mg/mL microsome protein and 1 mM NADPH was incubated for 0, 5, 15, 30 and 60 min. As a negative control, test compound was incubated with microsomes in the absence of NADPH. Samples were quenched with methanol and centrifuged for 25 min at 2500 rpm to precipitate proteins. Supernatants were analyzed (N=3) by LC-MS/MS. The In peak area ratio (compound peak area/internal standard peak area) was plotted against time and the gradient of the line determined the elimination rate constant [k=(−1)(slope)].
R^2 is the correlation coefficient of the linear regression for the determination of kinetic constant. T1/2 is the half life and CLint (mic) is the intrinsic clearance. CLint(liver)=CLint (mic)*mg microsomal protein/g liver weight*g liver weight/kg body weight. Liver weight/kg body weight is 20 g/kg for human.

Conc. in brain, individual animal ([1]; mouse brain, 0.083 h): 2943 ng/g and *693 ng/g | Conc. in brain, individual animal ([1]; mouse brain, 0.25 h): 3391 ng/g and 5173 ng/g and 2397 ng/g | Conc. in brain, individual animal ([1]; mouse brain, 0.50 h): 2795 ng/g and 2950 ng/g | Conc. in brain, individual animal ([1]; mouse brain, 1.00 h): 2651 ng/g and 2154 ng/g | Conc. in brain, individual animal ([1]; mouse brain, 2.00 h): 411 ng/g and 792 ng/g | Conc. in brain, individual animal ([1]; mouse brain, 4.00 h): 112 ng/g and 124 ng/g | Conc. in brain, individual animal ([1]; mouse brain, 8.00 h): 7.74 ng/g and 27.5 ng/g and 41.4 ng/g | Conc. in brain, individual animal ([1]; mouse brain, 24.0 h): 2.68 ng/g and 4.25 ng/g and 2.07 ng/g | Conc. in plasma, individual animal ([1]; mouse plasma, 0.083 h): 41.4 ng/mL and *14 ng/mL | Conc. in plasma, individual animal ([1]; mouse plasma, 0.25 h): 27.2 ng/mL and 43.9 ng/mL and 19.5 ng/mL | Conc. in plasma, individual animal ([1]; mouse plasma, 0.50 h): 14.6 ng/mL and 21.9 ng/mL | Conc. in plasma, individual animal ([1]; mouse plasma, 1.00 h): 21.5 ng/mL and 15.3 ng/mL | Conc. in plasma, individual animal ([1]; mouse plasma, 2.00 h): 7.54 ng/mL and 1.71 ng/mL and 3.84 ng/mL | Conc. in plasma, individual animal ([1]; mouse plasma, 4.00 h): BLQ and 0.533 ng/mL | Brain/Plasma ratio, individual animal ([1]; mouse, 0.083 h): 71.1 and *48.9 | Brain/Plasma ratio, individual animal ([1]; mouse, 0.25 h): 118 and 123 | Brain/Plasma ratio, individual animal ([1]; mouse, 0.50 h): 192 and 135 | Brain/Plasma ratio, individual animal ([1]; mouse, 1.00 h): 123 and 141 | Brain/Plasma ratio, individual animal ([1]; mouse, 2.00 h): 102 and 240 and 206 | Brain/Plasma ratio, individual animal ([1]; mouse, 4.00 h): 232 | concentration at 0.083 h ([1]; male, ICR (CD-1), mouse, brain, iv, mouse brain, 0.083 h, read-out: Conc. in brain, Mean): 3360 ng/g | concentration at 0.083 h ([1]; male, ICR (CD-1), mouse, brain, iv, mouse brain, 0.083 h, read-out: Conc. in brain, individual animal): 3770 ng/g | concentration at 0.25 h ([1]; male, ICR (CD-1), mouse, brain, iv, mouse brain, 0.25 h, read-out: Conc. in brain, Mean): 3650 ng/g | concentration at 0.5 h ([1]; male, ICR (CD-1), mouse, brain, iv, mouse brain, 0.50 h, read-out: Conc. in brain, Mean): 2650 ng/g | concentration at 0.5 h ([1]; male, ICR (CD-1), mouse, brain, iv, mouse brain, 0.50 h, read-out: Conc. in brain, individual animal): 2200 ng/g | concentration at 1 h ([1]; male, ICR (CD-1), mouse, brain, iv, mouse brain, 1.00 h, read-out: Conc. in brain, Mean): 2460 ng/g | concentration at 1 h ([1]; male, ICR (CD-1), mouse, brain, iv, mouse brain, 1.00 h, read-out: Conc. in brain, individual animal): 2760 ng/g | concentration at 2 h ([1]; male, ICR (CD-1), mouse, brain, iv, mouse brain, 2.00 h, read-out: Conc. in brain, Mean): 659 ng/g | concentration at 2 h ([1]; male, ICR (CD-1), mouse, brain, iv, mouse brain, 2.00 h, read-out: Conc. in brain, individual animal): 773 ng/g | concentration at 4 h ([1]; male, ICR (CD-1), mouse, brain, iv, mouse brain, 4.00 h, read-out: Conc. in brain, Mean): 104 ng/g | concentration at 4 h ([1]; male, ICR (CD-1), mouse, brain, iv, mouse brain, 4.00 h, read-out: Conc. in brain, individual animal): 76 ng/g | concentration at 8 h ([1]; male, ICR (CD-1), mouse, brain, iv, mouse brain, 8.00 h, read-out: Conc. in brain, Mean): 25.6 ng/g | concentration at 24 h ([1]; male, ICR (CD-1), mouse, brain, iv, mouse brain, 24.0 h, read-out: Conc. in brain, Mean): 3 ng/g | Kp at 0.083 h ([1]; male, ICR (CD-1), mouse, brain/plasma, iv, mouse, 0.083 h, read-out: Brain/Plasma ratio, Mean): 71.2 | Kp at 0.083 h ([1]; male, ICR (CD-1), mouse, brain/plasma, iv, mouse, 0.083 h, read-out: Brain/Plasma ratio, individual animal): 71.3 | Kp at 0.25 h ([1]; male, ICR (CD-1), mouse, brain/plasma, iv, mouse, 0.25 h, read-out: Brain/Plasma ratio, Mean): 122 | Kp at 0.25 h ([1]; male, ICR (CD-1), mouse, brain/plasma, iv, mouse, 0.25 h, read-out: Brain/Plasma ratio, individual animal): 125 | Kp at 0.5 h ([1]; male, ICR (CD-1), mouse, brain/plasma, iv, mouse, 0.50 h, read-out: Brain/Plasma ratio, Mean): 151 | Kp at 0.5 h ([1]; male, ICR (CD-1), mouse, brain/plasma, iv, mouse, 0.50 h, read-out: Brain/Plasma ratio, individual animal): 128 | Kp at 1 h ([1]; male, ICR (CD-1), mouse, brain/plasma, iv, mouse, 1.00 h, read-out: Brain/Plasma ratio, Mean): 159 | Kp at 1 h ([1]; male, ICR (CD-1), mouse, brain/plasma, iv, mouse, 1.00 h, read-out: Brain/Plasma ratio, individual animal): 178 | Kp at 2 h ([1]; male, ICR (CD-1), mouse, brain/plasma, iv, mouse, 2.00 h, read-out: Brain/Plasma ratio, Mean): 183 | Kp at 4 h ([1]; male, ICR (CD-1), mouse, brain/plasma, iv, mouse, 4.00 h, read-out: Brain/Plasma ratio, Mean): 210 | Kp at 4 h ([1]; male, ICR (CD-1), mouse, brain/plasma, iv, mouse, 4.00 h, read-out: Brain/Plasma ratio, individual animal): 188 | concentration at 0.083 h ([1]; male, ICR (CD-1), mouse, plasma, iv, mouse plasma, 0.083 h, read-out: Conc. in plasma, Mean): 47.1 ng/mL | concentration at 0.083 h ([1]; male, ICR (CD-1), mouse, plasma, iv, mouse plasma, 0.083 h, read-out: Conc. in plasma, individual animal): 52.9 ng/mL | concentration at 0.25 h ([1]; male, ICR (CD-1), mouse, plasma, iv, mouse plasma, 0.25 h, read-out: Conc. in plasma, Mean): 30.2 ng/mL | concentration at 0.5 h ([1]; male, ICR (CD-1), mouse, plasma, iv, mouse plasma, 0.50 h, read-out: Conc. in plasma, Mean): 17.9 ng/mL | concentration at 0.5 h ([1]; male, ICR (CD-1), mouse, plasma, iv, mouse plasma, 0.50 h, read-out: Conc. in plasma, individual animal): 17.2 ng/mL | concentration at 1 h ([1]; male, ICR (CD-1), mouse, plasma, iv, mouse plasma, 1.00 h, read-out: Conc. in plasma, Mean): 15.4 ng/mL | concentration at 1 h ([1]; male, ICR (CD-1), mouse, plasma, iv, mouse plasma, 1.00 h, read-out: Conc. in plasma, individual animal): 15.5 ng/mL | concentration at 2 h ([1]; male, ICR (CD-1), mouse, plasma, iv, mouse plasma, 2.00 h, read-out: Conc. in plasma, Mean): 4.37 ng/mL | concentration at 4 h ([1]; male, ICR (CD-1), mouse, plasma, iv, mouse plasma, 4.00 h, read-out: Conc. in plasma, Mean): 0.565 ng/mL | concentration at 4 h ([1]; male, ICR (CD-1), mouse, plasma, iv, mouse plasma, 4.00 h, read-out: Conc. in plasma, individual animal): 0.597 ng/mL | half-life at 3 μM (in vitro): 34 min | CLint(mic) (in vitro; 3 μM): 40.8 µL/min/mg | Remaining (T = 60 min) (in vitro; 1 h, 3 μM): 25.9% | CLint scaled at 3 μM (in vitro; CLint(liver)): 36.7 mL/min/kg
Structure (SMILES): CC(=O)Nc1ccc(C2=Nc3ccc(Cl)cc3OC2)cc1 [CA77, reference compound]
